From patent publication US6624151B1, “Compounds selectively inhibiting gamma 9 delta 2 T lymphocytes” (Institut National de la Sante et de la Recherche Medicale, priority 1999, dated 2003)
Like-named read-outs stand apart in the source and are kept apart here.

How the values were obtained:
[1] = tested on: Tγ9δ2 lymphocytes; assay: Induced cytotoxicity test, Tγ9δ2 lymphocyte clone stimulated by antigen BrHPP
[2] = tested on: Tγ8δ3 lymphocytes; conditions: clone stimulated by a conventional antigen; increasing concentrations; FIG. 8
Procedure: A test of induced cytotoxicity is carried out as in Example 12, but with a clone of Tγ8δ3 lymphocyte stimulated by a conventional antigen of these lymphocytes (black circles), and in the presence of the compound according to the invention BrHPCP in increasing concentrations in the culture medium (black squares in FIG. 8).

[3] = tested on: Tγ9δ2 lymphocytes; conditions: FIG. 7 lower
Procedure: The two left graphs are obtained by stimulating the Tγ9δ2 lymphocytes as in Example 12, by adding first 9 nM of BrHPP antigen into the culture medium, then by adding increasing concentrations (on the abscissa) of the compound according to the invention, BrHPCP. The two right hand graphs are obtained by incorporating first of all 60 μM of the compound according to the invention, BrHPCP, into the culture medium in contact with the Tγ9δ2 lymphocytes, then by adding increasing concentrations (on the abscissa) of the antigen compound stimulating BrHPP. […] The upper graphs give the percentage of residual response in the cultures (induced cytotoxicity test). The lower graphs give the concentration of TNF salted out in pg/ml.

[4] = read-out: IC50 concentration leading to the inhibition of 50% of the reference response, lymphocytes stimulated by 80 nM BrHPP, induced cytotoxicity test
[5] = read-out: bioactivity (selective inhibition of Tγ9δ2 lymphocytes), concentration of BrHPP equal to 150 μM (so in the source)

For `CC1(CCOP(=O)(O)C(F)(F)P(=O)(O)O)CO1` (stereo not shown) [Epox PCF2P, 3,4-Epoxy-3-methyl-1-butyl-difluoromethylenediphosphonate], the IC50 [1, 4] was 300 µM.
In the case of `CC1(CCOP(=O)(O)CP(=O)(O)O)CO1` (stereo not shown) [Epox PCP, 3,4-Epoxy-3-methyl-1-butyl-methylenediphosphonate], the IC50 [1, 4] is reported as 30 µM and the IC50 ([1]; read-out: IC50 concentration, stated in text (formulation example), IC50 defined with BrHPP at 80 nM) is reported as 15 µM.
`C=C(C)CCOP(=O)(O)C(F)(F)P(=O)(O)O` [I PCF2P, 3-Methyl-3-butene-1-yl-difluoromethylenediphosphonate] showed an IC50 [1, 4] of 1000 µM.
For `CC(O)(CBr)CCOP(=O)(O)C(F)P(=O)(O)O` (stereo not shown) [BrHPCHFP, 3-(bromomethyl)-3-butanol-1-yl-monofluoromethylenediphosphonate], the IC50 [1, 5] was 30 µM.
Work on `CC(O)(CI)CCOP(=O)(O)CP(=O)(O)O` (stereo not shown) [IH PCP, 3-(Iodomethyl)-3-butanol-1-yl-methylenediphosphonate] yielded an IC50 [1, 4] of 15 µM.
With `CC(O)(CBr)CCOP(=O)(O)C(F)(F)P(=O)(O)O` (stereo not shown) [BrH PCF2P, 3-(Bromomethyl)-3-butanol-1-yl-difluoromethylenediphosphonate] the IC50 [1, 4] was 150 µM.
With `CC(O)(CBr)CCOP(=O)(O)CP(=O)(O)O` (stereo not shown) [BrH PCP, 3-(Bromomethyl)-3-butanol-1-yl-methylenediphosphonate] the “inhibition of Tγ8δ3 lymphocytes” value [2] was “does not inhibit the Tγ8δ3 lymphocytes”, the “inhibition of stimulation by BrHPP (residual response, induced cytotoxicity)” value ([1]; 9 nM BrHPP first, then increasing BrHPCP, FIG. 7 upper) was “inhibits the stimulation by BrHPP” and the “reversibility of inhibition (induced cytotoxicity)” value ([1]; 60 μM BrHPCP first, then increasing BrHPP, FIG. 7 upper) was “reversible”. For the same compound, the IC50 [1, 4] was 15 µM, the “inhibition of stimulation by BrHPP (TNF salted out)” value ([3]; 9 nM BrHPP first, then increasing BrHPCP) was “inhibits the stimulation by BrHPP” and the “reversibility of inhibition (TNF salted out)” value ([3]; 60 μM BrHPCP first, then increasing BrHPP) was “reversible”.
Compound `CC(C)(O)CCOP(=O)(O)CP(=O)(O)O` [tButOH PCP, 3-Methyl-3-butanol-1-yl-methylenediphosphonate] has an IC50 [1, 4] of 1000 µM.
“3-Methyl-3-butene-1-yl-methylenediphosphonate [I PCP]” gave an IC50 [1, 4] of 700 µM.
Compound `CC1(CCOP(=O)(O)C(F)P(=O)(O)O)CO1` (stereo not shown) [Epox PCHFP, 3,4-epoxy-3-methyl-1-butyl-monofluoromethylenediphosphonate] has an IC50 [1, 5] of 50 µM.
